Assay results taken from patent US7022675B2, “Wound healing compositions” (University of Southern California, priority 1997, dated 2006).

How the values were obtained:
[1] = system: rat carotid artery; settings: cited from earlier work; for neointimal formation: similar model, Janiak et al. 1992, CGP 42112 infused perivascularly for 14 days, losartan at low doses; for reduction of intimal hyperplasia / intimal area: treatment of rats, Pratt et al. 1992
[2] = system: water intake; settings: injected into the anterior diencephalon in the rat, Fitzsimons 1971; cited from earlier work
[3] = system: wound tissue; settings: application to wound tissue; cited from earlier work
[4] = system: full thickness dermal wounds; test: in vivo wound healing assay, full thickness dermal wounds in rats; parameters: species or system Sprague Dawley rats; settings: 100 μg/wound in 10% carboxymethyl cellulose, daily for first five days; measured days 2, 4, 7 and 9
Experimental: Analogs of angiotensin II and analogs of angiotensin II fragments having the structures disclosed herein were prepared using an automated peptide synthesizer and methods familiar to those having ordinary skill in the art. Each of the analogs was tested for its ability to accelerate wound healing according to the method described below. Results of procedures were used to determine the extent of wound closure at days 2, 4, 7 and 9, measured as a percentage of a vehicle-treated control wound. Since all of the analogs were not tested during the same experimental procedure, AII was included as a positive control for each group of peptides tested.
Female Sprague Dawley rats, 12 weeks old, were obtained from Simonsen Laboratories, Gilroy, Calif. On the day of surgery, the rats received intramuscular ketamine/rompum anesthesia prior to preparation for surgery. […] At days 2, 4, 7 and 9, the area of the skin wounds was measured under methoxyflurane anesthesia (commercially available as Metofane from Pittman-Moore, Mundelein, Ill.). The area of the wound was determined by (1) tracing the wound shape onto graph paper (1×1 mm squares); (2) cutting out the shape; (3) weighing the paper and comparing the weight with a 1.5×1.5 cm paper cutout; and (4) counting the number of squares. In addition, on days 2 and 4 the area of granulation tissue was similarly determined.

[5] = system: blood pressure; settings: intracerebroventricular infusion in the rat, concentrations 1,000 times higher than that of AII that increased blood pressure, Wright et al. 1989; cited from earlier work
[6] = system: blood pressure; settings: cited from earlier work

CCCCc1nc(Cl)c(CO)n1Cc1ccc(-c2ccccc2-c2nn[nH]n2)cc1 [losartan]
neointimal formation [1]: ineffective | reduction of intimal hyperplasia / intimal area [1]: 95%

AII(1-4): AII fragment (DRVY; Angiotensin 2; UniProt P01019 25-28, looked up, fragment)
effect on water intake [2]: only a slight effect

Asp-Arg-Val-Tyr-Ile-His-Pro-Phe (DRVYIHPF) [angiotensin II, positive control]
rate of wound healing [3]: significantly increases

His-Pro-Phe [AII(6-8)]
wound closure relative to vehicle-treated control wounds [4]: not to be effective

Cc1cc(Cn2cnc3c2C[C@@H](C(=O)O)N(C(=O)C(c2ccccc2)c2ccccc2)C3)ccc1N(C)C [PD 123319]
reduction of intimal hyperplasia / intimal area [1]: 73%

CGP 42112
neointimal formation [1]: prevented neointimal formation

Tyr-Ile-His-Pro-Phe (YIHPF) [AII(4-8)]
wound closure relative to vehicle-treated control wounds [4]: not to be effective | effect on blood pressure [5]: minimal effect | effect on water intake [2]: only a slight effect

AII(5-8): AII fragment (IHPF; Angiotensin 2; UniProt P01019 29-32, looked up, fragment)
effect on blood pressure [5]: minimal effect | effect on water intake [2]: only a slight effect

AII(1-7): fragment of AII (DRVYIHP; Angiotensin 2; UniProt P01019 25-31, looked up, fragment)
amount needed for a comparable pressor response, relative to AII ([6]; Benter et al. 1993): about 10,000 times more AII(1-7) than AII | dose needed for effects on blood pressure (pressor), relative to AII ([6]; depending upon the model tested and route of administration): 10,000-100,000 times the dose of AII | effect on water intake [2]: completely inactive
